Where two headings read alike, the source gives them in different places.

Data set [1] has as its system IPEC-1 cells. Particulars: for Individual toxicity compared with DON: IPEC-1, 48 h, dose-effect curves; for IC50: read-out: IC50 (dose leading to a 50% reduction in cell viability); for IC50 / IC50 (dose leading to a 50% reduction in cell viability): mean ± SEM of three biological replicates; for Toxicity to intestinal cells at high concentrations: IPEC-1, concentrations of up to 300 µM.

Data set [2] relates to IPEC-1 cells. Description: cells. The settings on record: Sus scrofa, 48 h, read-out: IC50 (dose leading to a 50% reduction in cell viability).
Data set [3] deals with IPEC-J2. The settings on record: read-out: relative IC50; cited from earlier work.
For data set [4], the system named is lymphocytes and splenocytes. The settings on record: cited from earlier work.
Data set [5] relates to human multiple myeloma blood cells. Particulars: cited from earlier work.
Data set [6] deals with Caco-2. Particulars: cited from earlier work.
Data set [7] deals with HepG2. Particulars: cited from earlier work.
The subject of data set [8] is HepG2. Particulars: HepG2, 2 mM; cited from earlier work.
The subject of data set [9] is A549. Particulars: A549, 2 mM; cited from earlier work.
For data set [10], the system named is THP-1 cells. The settings on record: THP-1, 2 mM; cited from earlier work.
The mark [11] stands for this setting: lymphocytes and splenocytes, low doses (> 0.1µM).
[12] abbreviates: ratio 3, highest concentration(s): DON 50 µM + EMO 5 µM / ENN-B 17.2 µM / BEA 2.3 µM / ENN-A1 6.5 µM, ENN-B1 6 and 18 µM.

For the molecule `CCC(=O)CCCCC[C@@H]1NC(=O)[C@H]2CCCCN2C(=O)[C@H]([C@@H](C)CC)NC(=O)[C@H](Cc2cn(OC)c3ccccc23)NC1=O` [Apicidin], in data set [1], the “Toxicity (classification from IC50 compared with DON)” value is listed as “Highly toxic”, the “Toxicity of the emerging mycotoxin alone” value is given as “not toxic” and the “Individual toxicity compared with DON” value is reported as “more toxic than DON”. The “Concentration at which toxicity was confirmed” value in data set [1] (pig) is reported as greater than 0.5 µM. The “Toxicity of the combination of DON and the emerging mycotoxin” value in data set [1] (ratio 2, doses lower than DON (5.6 µM) + API (0.09 µM)) is reported as “lower than the toxicity of DON alone, but higher than API alone”. In addition, the IC50 – broadly, the concentration needed to halve the response being measured – in data set [2] turned out to be 1.5 ± 0.5 µM.
For the molecule `COC1=C(C2=C(OC)C(=O)c3cc4oc(C)cc(=O)c4c(O)c3C2=O)C(=O)c2c(cc3oc(C)cc(=O)c3c2O)C1=O` [Aurofusarin], in [1], the “Toxicity (classification from IC50 compared with DON)” value is recorded as “Moderately toxic”, the “Toxicity of the emerging mycotoxin alone” value is “minimal”, the “Individual toxicity compared with DON” value is “less than that of DON” and the IC50 is 19.1 ± 3.4 µM. Further, in data set [3], the IC50 was 9.3 µM.
As to `O=C1N[C@@H](Cc2c[nH]c3ccccc23)C(=O)N2CCC[C@@H]12` [Brevianamide F], in data set [1], the “Toxicity (classification from IC50 compared with DON)” value is reported as “Non-toxic”, the “Toxicity to intestinal cells at high concentrations” value (“Toxicity to intestinal cells” below) was “not toxic” and the “IC50 (dose leading to a 50% reduction in cell viability)” value is “Non-Toxic”.
In the case of `O=C1N[C@@H](Cc2ccc(O)cc2)C(=O)N2CCC[C@@H]12` [Cyclo-(L-Pro-L-Tyr)], in [1], the “Toxicity (classification from IC50 compared with DON)” value is on record as “Non-toxic”, the “Toxicity to intestinal cells” value is “not toxic” and the “IC50 (dose leading to a 50% reduction in cell viability)” value was “Non-Toxic”.
As for `CC1=C[C@H]2O[C@@H]3[C@H](O)C[C@](C)([C@@]2(CO)[C@H](O)C1=O)[C@]31CO1` [Deoxynivalenol], in data set [1], the “Toxicity (classification from IC50 compared with DON)” value was “Highly toxic” and the IC50 amounted to 3.2 ± 0.7 µM. Moreover, in data set [4] (setting [11]), the Proliferation result was “up to 200%”.
On to `Cc1cc(O)c2c(c1)C(=O)c1cc(O)cc(O)c1C2=O` [Emodin], for which, in data set [1], the “Proliferation induced by the toxin alone” value is “up to 130%”, the “Toxicity (classification from IC50 compared with DON)” value is reported as “Moderately toxic” and the “Individual toxicity compared with DON” value is on record as “less than that of DON”. In addition, the “Toxicity of the combination of DON and the emerging mycotoxin” value in [1] (setting [12]) is given as “less toxic than DON alone”. Also, the half-maximal inhibitory concentration (IC50) in data set [2] amounted to 19 ± 0.7 µM. Besides, the concentration for half-maximal inhibition (IC50) in data set [3] is 13.1 µM. For the same molecule, the 50% inhibitory concentration (IC50) in [5] was 38 µM.
Turning to `CC[C@H](C)[C@H]1C(=O)O[C@H](C(C)C)C(=O)N(C)[C@@H](C(C)C)C(=O)O[C@H](C(C)C)C(=O)N(C)[C@@H](C(C)C)C(=O)O[C@H](C(C)C)C(=O)N1C` [Enniatin B1], the “Toxicity (classification from IC50 compared with DON)” value in data set [1] is recorded as “Moderately toxic”. For the same molecule, the “Toxicity of the emerging mycotoxin alone” value in data set [1] is given as “minimal”. Moreover, the “Individual toxicity compared with DON” value in [1] is “less than that of DON”. In addition, the “Toxicity of the combination of DON and the emerging mycotoxin” value in data set [1] (in mixture with DON, ratio 3, in general (exceptions reported separately)) was “the same as the toxicity of DON alone”; in [1] (ratio 2, highest concentration: DON 50 µM + ENN-B1 4.1 µM / ENN-B 3.6 µM / ENN-A1 1.7 µM) it was “higher than the toxicity of ENN-B1 alone, but lower than the toxicity of DON alone”; in [1] (setting [12]) it was “the same as the toxicity of ENN-B1 alone, but lower than the toxicity of DON alone”. For the same molecule, the concentration for half-maximal inhibition (IC50) in data set [2] stood at 13.5 ± 2.5 µM.
Turning to `CC(C)[C@H]1C(=O)O[C@H](C(C)C)C(=O)N(C)[C@@H](C(C)C)C(=O)O[C@H](C(C)C)C(=O)N(C)[C@@H](C(C)C)C(=O)O[C@H](C(C)C)C(=O)N1C` [Enniatin B], in [1], the “Toxicity (classification from IC50 compared with DON)” value is given as “Highly toxic”, the “Toxicity of the emerging mycotoxin alone” value is “not toxic” and the “Individual toxicity compared with DON” value is “close to that of DON”. For the same molecule, the “Toxicity of the combination of DON and the emerging mycotoxin” value in [1] (setting [12]) was “lower than the toxicity of either DON alone or ENN-B alone”. The 50% inhibitory concentration (IC50) in data set [2] came to 4.4 ± 0.9 µM. In addition, in [6], the Toxicity result is given as “no toxicity at all”. The Toxicity result in data set [7] is given as “no toxicity at all”.
Consider `OCCc1c[nH]c2ccccc12` [Tryptophol], for which the “Toxicity (classification from IC50 compared with DON)” value in data set [1] is listed as “Non-toxic”. Moreover, the “Toxicity to intestinal cells” value in data set [1] is “not toxic”. In addition, the “IC50 (dose leading to a 50% reduction in cell viability)” value in data set [1] was “Non-Toxic”. Moreover, the DNA damage result in data set [8], in data set [9] and in data set [10] was “induced DNA damage” throughout.
For `CCCC[C@@H](C)[C@@H](OC(=O)C[C@@H](CC(=O)O)C(=O)O)[C@H](C[C@@H](C)C[C@H](O)CCCC[C@@H](O)C[C@H](O)[C@H](C)N)OC(=O)C[C@@H](CC(=O)O)C(=O)O` [fumonisin B1], in [4] (setting [11]), the Proliferation result is on record as “up to 200%”.
With `CC1=C[C@H]2O[C@@H]3[C@H](O)[C@@H](O)[C@](C)([C@@]2(CO)[C@H](O)C1=O)[C@]31CO1` [nivalenol], in [4], the Proliferation entry was “up to 200%”.
Turning to Beauvericin, the half-inhibitory concentration (IC50) in [1] was determined as 4.3 ± 1.8 µM.
For the molecule Enniatin A1, in [1], the 50% inhibitory concentration (IC50) was found to be 1.6 ± 0.3 µM.
Consider aflatoxin B1, for which the Proliferation result in data set [4] is on record as “up to 200%”.

Source of the values: paper PMC6950336, “Co-Occurrence of DON and Emerging Mycotoxins in Worldwide Finished Pig Feed and Their Combined Toxicity in Intestinal Cells” (Toxins, 2019).
